# Results reported in US6569842B2 (Board of Trustees of the University of Illinois, The, priority 2000, dated 2003).
# What was measured:
# [1] = test system: ZR-75-1 (breast); assay: Cytotoxicity against cultured ZR-75-1 cells (SRB); format: cell-based, human
# [2] = test system: human neuroblastoma cell lines; assay: Cytotoxic activity against neuroblastoma cell lines; format: cell-based
# [3] = test system: LU-1 (lung); assay: Cytotoxicity against cultured LU-1 cells (SRB); format: cell-based, human; conditions: for IC50: Homo sapiens, Lu1, 72 h, Method A, sample dissolved in DMSO, three days incubation, read-out: ED50 LU-1
# Description: (§1) Cytotoxicity of the crude extracts and purified compounds was determined in a number of cultured human cancer cell lines. Table 1 sets forth the various types of cancer cells evaluated using Method A. The cells were cultured in appropriate media and under standard conditions. To maintain logarithmic growth, the media were changed 24 hours prior to cytotoxic assays. On the day of the assay, the cells were harvested by trypsinization, counted, diluted in media, and added to 96-well plates containing test compounds dissolved in DMSO. The final DMSO concentration was 0.05%.
# (§2) In each of Methods A-C, the plates were incubated for three days. Following the incubation period, the cells were fixed and stained with sulforhodamine B (SRB) dye. The bound dye was liberated with Tris base, and the OD515 (optical density at 515 nm) was measured on an ELISA reader. The growth of the betulinic acid-treated cells was determined by the OD515 values, and the growth was compared to the OD515 values of treated control cells of Methods A-C. Dose response studies were performed to generate ED50 values. As used herein, the term OD515 is defined as optical density at 515 nm, and the term ED50 is defined as the concentration of a compound required to reduce cell number by 50%.
# [4] = test system: A431 (squamous cells); assay: Cytotoxicity against cultured A431 cells (SRB); format: cell-based, human
# Description: as §1, §2
# [5] = test system: U373 (glioma); assay: Cytotoxicity against cultured U373 cells (SRB); format: cell-based, human
# [6] = test system: MEL-2 (melanoma); assay: Cytotoxicity against cultured MEL-2 cells (SRB); format: cell-based, human; conditions: Homo sapiens, MEL2, 72 h, Method A, sample dissolved in DMSO; three days incubation; read-out: ED50 MEL-2
# Description: as §1, §2
# [7] = test system: LNCaP (prostate); assay: Cytotoxicity against cultured LNCaP cells (SRB); format: cell-based, human
# [8] = test system: ZR-75-1 (breast); assay: Cytotoxicity against cultured ZR-75-1 cells (SRB); format: cell-based, human; conditions: Homo sapiens, ZR-75-1, 72 h; Method A, sample dissolved in DMSO; three days incubation; read-out: ED50 ZR 75-1
# Description: as §1, §2
# [9] = test system: U373 (glioma); assay: Cytotoxicity against cultured U373 cells (SRB); format: cell-based, human; conditions: Method A, sample dissolved in DMSO; three days incubation
# Description: as §1, §2
# [10] = test system: COL-2 (colon); assay: Cytotoxicity against cultured COL-2 cells (SRB); format: cell-based, human; conditions: Method B, sample dissolved in tissue culture media
# [11] = 200 and 400 mg/kg doses; cited from earlier work
# [12] = mouse, in vivo, 500 mg/kg
# Description: In particular, the data was derived from experiments wherein four week old athymic mice were injected subcutaneously in the right flank with 3.0×10^8 UISO MEL-2 cells. UISO MEL-2 is a cell line derived from metastatic melanoma from human pleural fluid. Drug treatment was initiated on the day following tumor cell injection and continued every fourth day for a total of six doses. […] The mice were weighed, and the tumors measured with a micrometer every other day throughout the study. All animals were sacrificed and autopsied on day 33, when the mean tumor volume in the control animals was approximately one cm^3.
# [13] = test system: LNCaP (prostate); assay: Cytotoxicity against cultured LNCaP cells (SRB); format: cell-based, human; conditions: Method A, sample dissolved in DMSO; three days incubation
# Description: as §1, §2
# [14] = test system: MEL-2 (melanoma); assay: Cytotoxicity against cultured MEL-2 cells (SRB); format: cell-based, human
# [15] = test system: BC-1 (breast); assay: Cytotoxicity against cultured BC-1 cells (SRB); format: cell-based, human; conditions: Homo sapiens, BC1, 72 h; Method A, sample dissolved in DMSO; three days incubation; read-out: ED50 BC-1
# Description: as §1
# as §2, with “The growth of the betulinic acid-treated cells was determined by the OD515 values, and the growth was compared to the OD515 values of treated control cells of Methods A-C.” left out
# [16] = test system: MEL-3 human melanoma cell line; assay: Cytotoxicity against cultured MEL-3 cells; format: cell-based; conditions: dose-response study
# Description: as §2
# [17] = test system: HT-1080 (sarcoma); assay: Cytotoxicity against cultured HT-1080 cells (SRB); format: cell-based, human; conditions: for IC50: Homo sapiens, HT-1080, 72 h, Method A, sample dissolved in DMSO, three days incubation, read-out: ED50 HT-1080
# Description: as §1, §2
# [18] = test system: MEL-1 human melanoma cell line; assay: Cytotoxicity against cultured MEL-1 cells (SRB); format: cell-based
# Description: as §1, §2
# [19] = test system: MEL-4 human melanoma cell line; assay: Cytotoxicity against cultured MEL-4 cells (SRB); format: cell-based
# Description: as §1, §2
# [20] = test system: UISO MEL-1 cells; assay: In vivo study, MEL-1 tumors in athymic mice; conditions: 5, 50 or 250 mg/kg/dose IP betulinic acid/PVP every fourth day, six doses
# Description: In particular, four-week-old athymic mice were injected subcutaneously in the right flank with 5.0×10^8 UISO MEL-1 cells. Drug treatment was initiated on the day following tumor cell injection and continued every fourth day for a total of six doses. […] The mice were weighed, and tumors were measured with a micrometer every third day throughout the study. Treated animals were sacrificed and autopsied on day 41, when the mean tumor volume in the control mice was approximately 0.5 cm^3. The control mice then received six doses of 50 mg/kg every fourth day beginning day 41 and were sacrificed and autopsied on day 71.
# The results with respect to MEL-1 cells were similar to the results with respect to MEL-2 cells.
# [21] = test system: COL-2 (colon); assay: Cytotoxicity against cultured COL-2 cells (SRB); format: cell-based, human; conditions: Homo sapiens, Col2, 72 h, Method A, sample dissolved in DMSO; three days incubation; read-out: ED50 COL-2
# Description: as §1, §2
# [22] = test system: KB (human oral epidermoid carcinoma); assay: Cytotoxicity against cultured KB cells (SRB); format: cell-based
# Description: as §1, §2
# [23] = test system: BC-1 (breast); assay: Cytotoxicity against cultured BC-1 cells (SRB); format: cell-based, human; conditions: Method B, sample dissolved in tissue culture media
# [24] = test system: a variety of tumors; conditions: Phase II trials in Japan; cited from earlier work
# [25] = Method B, sample dissolved in tissue culture media
# [26] = Method C, sample dissolved in 5% aqueous bovine serum albumin
# [27] = Method A, sample dissolved in DMSO, three days incubation
smiles,measurement,setting,value
"C=C(C)[C@@H]1CC[C@]2(C(=O)O)CC[C@]3(C)[C@H](CC[C@@H]4[C@@]5(C)CC[C@H](O)C(C)(C)[C@@H]5CC[C@]43C)[C@@H]12 [Betulinic acid, 3β-hydroxy-lup-20 (29)ene-28-oic acid]",ED50 ZA-75-1,[1]; [25],6.4 µg/mL
same,ED50 ZA-75-1,[1]; [26],6.9 µg/mL
same,cytotoxic activity against human neuroblastoma cell lines,[2],excellent cytotoxic activity
same,IC50,[3],> 20 µg/mL
same,ED50 Lu1,[3]; [25],7.7 µg/mL
same,ED50 A431,[4]; [27],>20 µg/mL
same,ED50 A431,[4]; [25],12.1 µg/mL
same,ED50 A431,[4]; [26],>20 µg/mL
same,ED50 U373,[5]; [25],12.1 µg/mL
same,ED50 U373,[5]; [26],18.7 µg/mL
same,IC50,[6],~2 µg/mL
same,ED50 LNCaP,[7]; [25],19.3 µg/mL
same,ED50 LNCaP,[7]; [26],16.6 µg/mL
same,IC50,[8],> 20 µg/mL
same,ED50 U373,[9],>20 µg/mL
same,ED50 Col2,[10],13.3 µg/mL
same,activity in Hippocratic screen,[11],inactive
same,acute toxicity and body weight,[12],without causing acute signs of toxicity or a decrease in body weight
same,ED50 LNCaP,[13],>20 µg/mL
same,ED50 Mel2,[14]; [25],0.9 µg/mL
same,ED50 Mel2,[14]; [26],1.6 µg/mL
same,IC50,[15],> 20 µg/mL
same,ED50 MEL-3,[16],3.3 µg/mL
same,IC50,[17],> 20 µg/mL
same,ED50 HT,[17]; [25],11.3 µg/mL
same,ED50 HT,[17]; [26],10.0 µg/mL
same,ED50 MEL-1,[18]; [27],1.1 µg/mL
same,ED50 Mel1,[18]; [25],0.9 µg/mL
same,ED50 MEL-4,[19]; [27],4.8 µg/mL
same,ED50 Mel4,[19]; [25],1.6 µg/mL
same,activity against MEL-1 tumors,[20],active
same,IC50,[21],> 20 µg/mL
same,ED50 KB,[22]; [25],>20 µg/mL
same,ED50 KB,[22]; [26],16.6 µg/mL
same,ED50 BC1,[23],11.2 µg/mL
CCc1c2c(nc3ccc(OC(=O)N4CCC(N5CCCCC5)CC4)cc13)-c1cc3c(c(=O)n1C2)COC(=O)[C@]3(O)CC [irinotican],"response rate, lymphoma",[24],0%
same,"response rate, small cell lung",[24],50%
"CC(=O)O[C@H]1C(=O)[C@@]2(C)[C@H]([C@H](OC(=O)c3ccccc3)[C@]3(O)C[C@H](OC(=O)[C@H](O)[C@@H](NC(=O)c4ccccc4)c4ccccc4)C(C)=C1C3(C)C)[C@]1(OC(C)=O)CO[C@@H]1C[C@@H]2O [Taxol, paclitaxel]",IC50,[6],0.06 µg/mL
same,IC50,[8],0.02 µg/mL
same,ED50 U373,[9],0.008 µg/mL
same,ED50 LNCaP,[13],0.02 µg/mL
same,IC50,[15],0.02 µg/mL
same,IC50,[21],0.02 µg/mL
same,ED50 KB,[22]; [27],0.02 µg/mL
CC[C@]1(O)C[C@H]2CN(CCc3c([nH]c4ccccc34)[C@@](C(=O)OC)(c3cc4c(cc3OC)N(C=O)[C@H]3[C@@](O)(C(=O)OC)[C@H](OC(C)=O)[C@]5(CC)C=CCN6CC[C@]43[C@@H]65)C2)C1 [Vincristine],IC50,[3],0.05 µg/mL
same,ED50 A431,[4]; [27],0.01 µg/mL
same,IC50,[6],0.02 µg/mL
same,IC50,[8],0.4 µg/mL
same,ED50 U373,[9],0.06 µg/mL
same,ED50 LNCaP,[13],0.1 µg/mL
same,IC50,[15],0.01 µg/mL
same,IC50,[17],0.02 µg/mL
same,IC50,[21],0.02 µg/mL
CC[C@]1(O)C[C@@H]2CN(CCc3c([nH]c4ccccc34)[C@@](C(=O)OC)(c3cc4c(cc3OC)N(C)[C@H]3[C@@](O)(C(=O)OC)[C@H](OC(C)=O)[C@]5(CC)C=CCN6CC[C@]43[C@@H]65)C2)C1 [Vinblastine],IC50,[3],0.02 µg/mL
same,ED50 A431,[4]; [27],0.05 µg/mL
same,IC50,[6],0.01 µg/mL
same,IC50,[8],0.3 µg/mL
same,ED50 U373,[9],1.1 µg/mL
same,ED50 LNCaP,[13],0.1 µg/mL
same,IC50,[15],0.06 µg/mL
same,IC50,[17],0.02 µg/mL
same,IC50,[21],0.01 µg/mL
same,ED50 KB,[22]; [27],0.04 µg/mL
